Data from patent US10301284B2, “Therapeutic inhibitory compounds” (LifeSci Pharmaceuticals, Inc., priority 2016, dated 2019).
Read-outs that look alike come from different tables or passages of the source.

Tests used:
[1] = biological target: T1, human Plasma Kallikrein (Homo sapiens (Human), UniProt P03952); assay: In vitro enzyme inhibition of human plasma kallikrein (Pro-Phe-Arg-AMC cleavage); format: biochemical; settings: human plasma kallikrein, PFR-AMC substrate, 37° C.; read-out: hPK IC50
T1 sequence (P03952 391-638 limits assumed): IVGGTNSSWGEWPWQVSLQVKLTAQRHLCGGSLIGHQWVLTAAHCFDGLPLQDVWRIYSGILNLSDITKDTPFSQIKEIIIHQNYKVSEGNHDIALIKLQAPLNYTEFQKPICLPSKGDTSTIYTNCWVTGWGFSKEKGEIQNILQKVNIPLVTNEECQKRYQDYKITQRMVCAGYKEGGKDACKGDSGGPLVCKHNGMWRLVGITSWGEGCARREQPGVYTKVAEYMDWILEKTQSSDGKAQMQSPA
T1 sequence (P03952 20-390 partner limits assumed): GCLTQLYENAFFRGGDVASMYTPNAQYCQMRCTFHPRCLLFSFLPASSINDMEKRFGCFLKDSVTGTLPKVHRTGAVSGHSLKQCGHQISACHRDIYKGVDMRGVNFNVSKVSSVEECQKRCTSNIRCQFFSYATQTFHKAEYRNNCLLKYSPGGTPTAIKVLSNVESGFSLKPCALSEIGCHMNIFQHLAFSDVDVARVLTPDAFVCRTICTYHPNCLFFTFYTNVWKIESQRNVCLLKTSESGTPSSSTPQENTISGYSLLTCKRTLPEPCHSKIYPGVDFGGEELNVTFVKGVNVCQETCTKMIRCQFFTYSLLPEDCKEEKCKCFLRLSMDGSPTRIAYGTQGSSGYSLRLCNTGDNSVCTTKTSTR
In short: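 Human plasma kallikrein preincubated 5 min at 37 °C with compound in 50 mM Tris-HCl pH 7.5, 150 mM NaCl, 0.01% Triton X-100. Reaction started with Pro-Phe-Arg-AMC, fluorescence read every 43 s for 1 h at 37 °C. IC50 from highest mean velocity over 20 reads (~15 min).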

[2] = biological target: T1, human Plasma Kallikrein; assay: Human whole blood kallikrein inhibition (ellagic acid-activated human plasma, Z-FR-2-AMC substrate); format: biochemical
In short: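 Platelet-depleted human plasma was activated with ellagic acid and diluted in 50 mM Tris-HCl pH 7.2, 150 mM NaCl, 0.01% Triton X-100, then preincubated 15 min at 37 °C. Compounds (0.076 nM–20 μM, duplicates) were added for 5 min at 37 °C. Z-FR-2-AMC (40 μM final) was read kinetically at ex 330/em 440 nm for 60 min, and IC50 was taken from a variable-slope fit.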

[3] = Pharmacokinetic evaluation, oral exposure in rats; format: in vivo; settings: male Sprague-Dawley rats, single oral dose 10 mg/kg via oral gavage, plasma
In short: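 Male Sprague-Dawley rats dosed once at 10 mg/kg by oral gavage (2 mg/mL formulation). Jugular blood drawn pre-dose and from 5 min to 24 h post-dose; plasma compound levels measured by LC/MS/MS.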

Row | Molecule | IC50 [1] [nM] | EC50 [2] [nM] | AUC ([3]; rat, read-out: AUC) [ng·h/mL] | AUC [3] | EC50 ([2]; human plasma activated with ellagic acid, Z-FR-2-AMC 40 μM, 37° C., read-out: HWB EC50) [nM]
1 | Cc1cc(N)nc(C)c1CNC(=O)c1cn(Cc2ccc3ncc(Cl)cc3c2)c2nccc(C#N)c12 [Example 127, N-((6-amino-2,4-dimethylpyridin-3-yl)methyl)-1-((3-chloroquinolin-6-yl)methyl)-4-cyano-1H-pyrrolo[2,3-b]pyridine-3-carboxamide] | < 100 | < 100 | 100 to 1000 |  | 
2 | Cc1cc(N)nc(C)c1CNC(=O)c1nn(Cc2ccc3ncc(Cl)cc3c2)c2cncc(C#N)c12 [Example 129, N-((6-amino-2,4-dimethylpyridin-3-yl)methyl)-1-((3-chloroquinolin-6-yl)methyl)-4-cyano-1H-pyrazolo[3,4-c]pyridine-3-carboxamide] | < 100 | < 100 | < 100 |  | 
3 | Cc1cc(N)nc(C)c1CNC(=O)c1cn(Cc2ccc3ncc(Cl)cc3c2)c2cnc(C#N)cc12 [Example 134, N-((6-amino-2,4-dimethylpyridin-3-yl)methyl)-1-((3-chloroquinolin-6-yl)methyl)-5-cyano-1H-pyrrolo[2,3-c]pyridine-3-carboxamide] | < 100 | < 100 |  | BLQ | 
4 | Cc1cc(N)nc(C)c1CNC(=O)c1nn(Cc2ccc3ncc(Cl)cc3c2)c2ccc(=O)[nH]c12 [Example 138, N-((6-amino-2,4-dimethylpyridin-3-yl)methyl)-1-((3-chloroquinolin-6-yl)methyl)-5-oxo-4,5-dihydro-1H-pyrazolo[4,3-b]pyridine-3-carboxamide] | < 100 | < 100 | < 100 |  | 
5 | Cc1nc(N)ccc1CNC(=O)c1nn(Cc2ccc3ncc(Cl)cc3c2)c2ccc(=O)[nH]c12 [Example 139, N-((6-amino-2-methylpyridin-3-yl)methyl)-1-((3-chloroquinolin-6-yl)methyl)-5-oxo-4,5-dihydro-1H-pyrazolo[4,3-b]pyridine-3-carboxamide] | < 100 | < 100 | 100 to 1000 |  | 
6 | N-((6-amino-2,4-dimethylpyridin-3-yl)methyl)-1-((3-chloroquinolin-6-yl)methyl)-3-cyano-1H-pyrazole-4-carboxamide [Example 26] | < 100 |  |  | B (>100 ng · h/mL to ≤1000 ng · h/mL) | 100 to 1000
